Source: patent publication US7795378B2, “Peptide compositions for treatment of sexual dysfunction” (Palatin Technologies, Inc., priority 2002, dated 2010)
Where a SMILES comes first, the peptide text is derived from it. [ ]: non-standard residue; d: D form. The star is where a group is joined. dPhe(4-Cl) = N[C@H](Cc1ccc(Cl)cc1)C(=O)O; Ahp = NCCCCCCC(=O)O; Bn = c1ccc(C*)cc1

Key:
male Sprague-Dawley rats = assay: Induction of penile erections in male rats; format: in vivo, rat
Description: The ability of the peptides of Examples 1 to 13 to induce penile erection in male rats was evaluated. Male Sprague-Dawley rats weighing 200-250 g were kept on a 12 hour on/off light cycle with food and water ad libitum. All behavioral studies were performed between 10 a.m. and 5 p.m. Groups of 4-8 rats were treated with peptides at a variety of doses via intravenous administration. Immediately after administration, rats were placed into individual polystyrene cages (27 cm long, 16 cm wide, and 25 cm high) for behavioral observation.
The efficacious dose of NH2—(CH2)6CO-Ser(Bzl)-D-Phe(4-Cl)-Arg, made as in Example 1 above, to induce penile erection in Sprague Dawley rats by intravenous dosing and oral administration was determined. […] NH2—(CH2)6CO-Ser(Bzl)-D-Phe(4-Cl)-Arg was efficacious at doses as low as 0.1 to 1 μg/kg of body weight when administered by oral means, and at doses lower than 0.001 μg/kg of body weight when administered by intravenous means.
The efficacious dose of NH2—(CH2)6—CO-Ser(Bzl)-D-Phe(4-Cl)-Arg(NO2), made as in Example 5 above, to induce penile erection in Sprague Dawley rats by intravenous dosing was determined. […] It was determined that NH2—(CH2)6—CO-Ser(Bzl)-D-Phe(4-Cl)-Arg(NO2) was efficacious at doses as low as 0.001 to 10 μg/kg of body weight when administered by intravenous means, with efficacy determined by induction of penile erection in 100% of animals. The optimal dose response was at 1 μg/kg of body weight. FIG. 1 depicts the dose response profile, with the error bars depicting standard deviation where n (the number of animals) is between 8 and 19, depending on the dose point.
The efficacious dose of NH2—(CH2)6—CO-Ser(Bzl)-D-Phe(4-Cl)-Arg(NO2), made as in Example 5 above, to induce penile erection in Sprague Dawley rats by intranasal administration using a micropipetor to deliver 25 μL of solution into one nostril was determined. […] It was determined that NH2—(CH2)6—CO-Ser(Bzl)-D-Phe(4-Cl)-Arg(NO2) was efficacious at doses between 0.01 μg/kg and 100 μg/kg of body weight when administered by intranasal means. The peak dose response was at an intranasal dose of 0.1 μg/kg of body weight.

hMC4-R = molecular target: T1, hMC4-R (Homo sapiens, UniProt P32245); assay: Competitive inhibition binding assay with 125I-NDP-MSH, MC4 receptor; conditions: 10 μM peptide, 0 assigned when raw inhibition between −10% and 10%, read-out: % Inhibition at 10 μM concentration at MC4-Receptor
T1 construct: expressed in transfected cells
T1 sequence (P32245 whole entry): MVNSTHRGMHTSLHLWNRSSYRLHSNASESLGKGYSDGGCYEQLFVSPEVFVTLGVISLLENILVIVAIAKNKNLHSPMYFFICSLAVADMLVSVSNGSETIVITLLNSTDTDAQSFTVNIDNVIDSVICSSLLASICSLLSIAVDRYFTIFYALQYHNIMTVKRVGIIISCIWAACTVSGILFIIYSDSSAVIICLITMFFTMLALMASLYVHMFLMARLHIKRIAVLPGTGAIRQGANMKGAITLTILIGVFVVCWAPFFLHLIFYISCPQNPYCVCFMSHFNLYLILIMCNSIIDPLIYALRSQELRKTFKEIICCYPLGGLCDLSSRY
Description: (§1) Competitive inhibition binding assay was conducted using membranes prepared from hMC3-R, hMC4-R, hMC5-R, and B-16 mouse melanoma cells (containing MC1-R) using 0.4 nM ^125I-NDP-MSH (0.2 nM for MCL-R) (New England Nuclear, Boston, Mass., USA) in 50 mM HEPES buffer containing 1 mM MgCl2, 2 mM CaCl2, and 5 mM KCl, at pH 7.2. The assay tube also contained a chosen concentration of the peptides of this invention, for determining inhibition of the binding of ^125I-NDP-MSH to its receptor. Non-specific binding was measured by complete inhibition of binding of ^125I-NDP-MSH in the assay in the presence of 1 μM α-MSH. Incubation was for 90 minutes at 37° C., after which the assay mixture was filtered and the membranes washed three times with ice cold buffer. The filter was dried and counted in a gamma counter for remaining radioactivity bound to the membranes. 100% specific binding was defined as the difference in radioactivity (cpm) bound to cell membranes in the absence and presence of 1 μM α-MSH. The cpm obtained in the presence of peptides of this invention were normalized with respect to 100% specific binding to determine the percent inhibition of ^125I-NDP-MSH binding. Each assay was conducted in triplicate.
(§2) The binding of the peptides of Examples 1 to 13, inclusive, to melanocortin receptors was evaluated, with results shown on Table 1. Relative binding was determined by competitive inhibition using an α-MSH analog, iodinated NDP-MSH. B16-Fl mouse melanoma cells were used as the source of MC1 receptors and HEK 293 cells, transfected with human melanocortin receptor sequences, were used as the source of MC3, MC4 and MC5 receptors. A standard competitive binding assay protocol as described above was followed, using ^125I-NDP-MSH as the radioligand. A “0” percent inhibition was assigned when the raw percent inhibition, as an average of at least triplicate measures, was between −10% and 10%; in the majority of instances, the raw percent inhibition was between −10% and 0% inhibition.

hMC3-R = molecular target: T2, hMC3-R (Homo sapiens, UniProt P41968); assay: Competitive inhibition binding assay with 125I-NDP-MSH, MC3 receptor; conditions: 10 μM peptide, 0 assigned when raw inhibition between −10% and 10%, read-out: % Inhibition at 10 μM concentration at MC3-Receptor
T2 construct: expressed in transfected cells; host or cells: HEK 293 cells (membranes)
T2 sequence (P41968 whole entry): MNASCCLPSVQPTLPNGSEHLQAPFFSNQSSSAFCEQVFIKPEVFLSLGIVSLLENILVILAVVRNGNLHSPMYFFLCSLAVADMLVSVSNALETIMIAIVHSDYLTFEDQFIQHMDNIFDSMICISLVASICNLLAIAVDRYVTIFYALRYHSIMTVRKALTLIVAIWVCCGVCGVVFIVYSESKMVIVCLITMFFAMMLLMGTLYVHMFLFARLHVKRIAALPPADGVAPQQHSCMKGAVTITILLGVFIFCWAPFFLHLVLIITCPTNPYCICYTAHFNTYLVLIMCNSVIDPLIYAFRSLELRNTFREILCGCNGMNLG
Description: as §1, §2

[1] = tested on: panel of known central and peripheral receptors and neurotransmitters, ion channels and enzymes systems; assay: Receptor specificity screening panel; format: binding; conditions: 10 μM concentration
Description: The peptide NH2—(CH2)6CO-Ser(Bzl)-D-Phe(4-Cl)-Arg was tested at 10 μM concentration for binding to a panel of known central and peripheral receptors and neurotransmitters, including steroid receptors, neurotransmitter receptors, brain/gut peptide receptors, growth factor/hormone receptors and other receptors, and for interaction with a panel of known ion channels and enzymes systems.

hMC5-R = molecular target: T3, hMC5-R (Homo sapiens, UniProt P33032); assay: Competitive inhibition binding assay with 125I-NDP-MSH, MC5 receptor; conditions: 10 μM peptide, 0 assigned when raw inhibition between −10% and 10%, read-out: % Inhibition at 10 μM concentration at MC5-Receptor
T3 construct: expressed in transfected cells; host or cells: HEK 293 cells (membranes)
T3 sequence (P33032 whole entry): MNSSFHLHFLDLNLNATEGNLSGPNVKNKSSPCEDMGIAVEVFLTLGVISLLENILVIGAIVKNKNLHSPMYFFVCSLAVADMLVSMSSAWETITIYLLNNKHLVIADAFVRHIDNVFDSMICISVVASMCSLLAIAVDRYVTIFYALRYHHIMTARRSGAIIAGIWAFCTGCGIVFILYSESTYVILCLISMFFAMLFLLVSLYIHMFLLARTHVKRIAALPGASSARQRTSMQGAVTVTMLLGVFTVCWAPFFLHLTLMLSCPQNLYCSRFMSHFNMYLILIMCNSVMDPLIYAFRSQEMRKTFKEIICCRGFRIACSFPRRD
Description: as §1, §2

male rats = assay: Induced penile erections after pre-administration of MC4-R antagonist SHU9119; format: in vivo, rat; conditions: SHU9119 approximately 5 minutes before peptide
Excerpt: It is known that MC4-R antagonists inhibit the erectile activity of MC4-R agonists in a dose dependent manner. Such antagonists include SHU9119, a nonselective melanocortin antagonist of the formula Ac-Nle-cyc/o(-Asp-His-D-Nal(2′)-Arg-Trp-Lys)-NH2 (Hruby V. J., Lu D., Sharma S. D., et al. Cyclic lactam alpha-melanotropin analogues of Ac-Nle^4-cyclo[Asp^5, D-Phe^7, Lys^10]-NH2 with bulky aromatic amino acids at position 7 show high antagonist potency and selectivity at specific melanocortin receptors. J Med Chem 38:3454-3461 (1995)). Antagonists such as SHU9119 are known to inhibit MT-II and other known melanocortin receptor-specific agonists that induce erectile activity. SHU9119 was administered to male rats approximately 5 minutes before administration of either NH2—(CH2)6CO-Ser(Bzl)-D-Phe(4-Cl)-Arg or NH2—(CH2)6CO-Ser(Bzl)-D-Phe(4-Cl)-Arg-Trp-NH2, with Ac-Nle-cyc/o(Asp-His-D-Phe-Arg-Trp-Lys)-OH, a known MC4-R agonist, as a positive control.

[2] = molecular target: T4, MC1-R (B16-F1 mouse melanoma cells) (Mus musculus, UniProt Q01727); assay: Competitive inhibition binding assay with 125I-NDP-MSH, MC1 receptor; conditions: 10 μM peptide, 0 assigned when raw inhibition between −10% and 10%, read-out: % Inhibition at 10 μM concentration at MC1-Receptor
T4 construct: B-16 mouse melanoma cells (containing MC1-R); endogenous in cells; host or cells: B16-F1 mouse melanoma cells (membranes)
T4 sequence (Q01727 whole entry): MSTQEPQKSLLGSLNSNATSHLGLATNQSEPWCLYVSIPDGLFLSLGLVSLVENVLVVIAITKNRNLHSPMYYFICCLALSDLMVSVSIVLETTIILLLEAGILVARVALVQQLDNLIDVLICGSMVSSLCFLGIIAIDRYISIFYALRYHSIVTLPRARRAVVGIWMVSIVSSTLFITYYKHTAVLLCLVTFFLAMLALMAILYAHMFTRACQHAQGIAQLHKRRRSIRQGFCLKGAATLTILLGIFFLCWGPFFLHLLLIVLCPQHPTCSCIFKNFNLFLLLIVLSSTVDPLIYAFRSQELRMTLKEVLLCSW
Description: as §1, §2

N=C(N)NCCC[C@H](NC(=O)[C@@H](Cc1ccc(Cl)cc1)NC(=O)[C@H](COCc1ccccc1)NC(=O)CCCCCCN)C(=O)O [NH2—(CH2)6—CO-Ser(Bzl)-D-Phe(4-Cl)-Arg, NH2—(CH2)6CO-Ser(Bzl)-D-Phe(4-Cl)-Arg] (H-[Ahp]S(Bn)[dPhe(4-Cl)]R-OH)
human dose for oral delivery, extrapolated (could be as low as) (male Sprague-Dawley rats; extrapolated from rat to human, oral): 1 mg
efficacious dose to induce penile erection, intravenous (male Sprague-Dawley rats; male Sprague Dawley rats, intravenous): lower than 0.001 μg/kg
oral dose at which peptide may be biologically active (as low as) (male Sprague-Dawley rats; male rats, oral): 250 ng/kg
inhibition at 10 µM (hMC4-R): 0%
inhibition at 10 µM (hMC3-R): 0%
binding or activity at panel members [1]: No binding or activity
inhibition at 10 µM (hMC5-R): 0%
effect of SHU9119 pre-administration on induced erections (male rats): resulted in erections at a rate equivalent to that obtained without pre-administration of SHU9119
inhibition at 10 µM [2]: 0%
